Source: ChEMBL document CHEMBL2396528, “Synthesis of new conjugated coumarin-benzimidazole hybrids and their anticancer activity” (2013)

Key:
Format in all cases: functional
NCI-H226 = test: Cytotoxicity against human NCI-H226 cells assessed as growth inhibition at 10 uM after 48 hrs by SRB assay relative to control; settings: NCI-H226, 48 h, read-out: GI
UACC-62 = test: Cytotoxicity against human UACC62 cells assessed as growth inhibition at 10 uM after 48 hrs by SRB assay relative to control; settings: UACC-62, 48 h, read-out: GI
T47D = test: Cytotoxicity against human T47D cells assessed as growth inhibition at 10 uM after 48 hrs by SRB assay relative to control; settings: read-out: GI
OVCAR-4 = test: Cytotoxicity against human OVCAR4 cells assessed as growth inhibition at 10 uM after 48 hrs by SRB assay relative to control; settings: OVCAR-4, 48 h, read-out: GI
SF-268 = test: Cytotoxicity against human SF268 cells assessed as growth inhibition at 10 uM after 48 hrs by SRB assay relative to control; settings: SF-268, 48 h, read-out: GI
CCRF-CEM = test: Cytotoxicity against human CCRF-CEM cells assessed as growth inhibition at 10 uM after 48 hrs by SRB assay relative to control; settings: read-out: GI
ACHN = test: Cytotoxicity against human ACHN cells assessed as growth inhibition at 10 uM after 48 hrs by SRB assay relative to control; settings: read-out: GI
HOP-62 = test: Cytotoxicity against human HOP62 cells assessed as growth inhibition at 10 uM after 48 hrs by SRB assay relative to control; settings: HOP-62, 48 h, read-out: GI
UACC-257 = test: Cytotoxicity against human UACC257 cells assessed as growth inhibition at 10 uM after 48 hrs by SRB assay relative to control; settings: UACC-257, 48 h, read-out: GI
KM12 = test: Cytotoxicity against human KM12 cells assessed as growth inhibition at 10 uM after 48 hrs by SRB assay relative to control; settings: KM12, 48 h, read-out: GI
Malme-3M = test: Cytotoxicity against human MALME-3M cells assessed as growth inhibition at 10 uM after 48 hrs by SRB assay relative to control; settings: read-out: GI
SK-MEL-28 = test: Cytotoxicity against human SK-MEL-28 cells assessed as growth inhibition at 10 uM after 48 hrs by SRB assay relative to control; settings: SK-MEL-28, 48 h, read-out: GI
M14 = test: Cytotoxicity against human M14 cells assessed as growth inhibition at 10 uM after 48 hrs by SRB assay relative to control; settings: M14, 48 h, read-out: GI
[1] = Cytotoxicity against human NCI-ADR-RES cells assessed as growth inhibition at 10 uM after 48 hrs by SRB assay relative to control; settings: read-out: GI
MDA-MB-231 = test: Cytotoxicity against human MDA-MB-231 cells assessed as growth inhibition at 10 uM after 48 hrs by SRB assay relative to control; settings: MDA-MB-231, 48 h, read-out: GI
MOLT-4 = test: Cytotoxicity against human MOLT4 cells assessed as growth inhibition at 10 uM after 48 hrs by SRB assay relative to control; settings: MOLT-4, 48 h, read-out: GI
OVCAR-8 = test: Cytotoxicity against human OVCAR8 cells assessed as growth inhibition at 10 uM after 48 hrs by SRB assay relative to control; settings: OVCAR-8, 48 h, read-out: GI
PC-3 = test: Cytotoxicity against human PC3 cells assessed as growth inhibition at 10 uM after 48 hrs by SRB assay relative to control; settings: PC-3, 48 h, read-out: GI
IGROV-1 = test: Cytotoxicity against human IGROV1 cells assessed as growth inhibition at 10 uM after 48 hrs by SRB assay relative to control; settings: IGROV-1, 48 h, read-out: GI
MDA-MB-468 = test: Cytotoxicity against human MDA-MB-468 cells assessed as growth inhibition at 10 uM after 48 hrs by SRB assay relative to control; settings: MDA-MB-468, 48 h, read-out: GI
UO-31 = test: Cytotoxicity against human UO31 cells assessed as growth inhibition at 10 uM after 48 hrs by SRB assay relative to control; settings: UO-31, 48 h, read-out: GI
Hs-578T = test: Cytotoxicity against human Hs578T cells assessed as growth inhibition at 10 uM after 48 hrs by SRB assay relative to control; settings: read-out: GI
OVCAR-5 = test: Cytotoxicity against human OVCAR5 cells assessed as growth inhibition at 10 uM after 48 hrs by SRB assay relative to control; settings: OVCAR-5, 48 h, read-out: GI
SNB-75 = test: Cytotoxicity against human SNB75 cells assessed as growth inhibition at 10 uM after 48 hrs by SRB assay relative to control; settings: SNB-75, 48 h, read-out: GI
A498 = test: Cytotoxicity against human A498 cells assessed as growth inhibition at 10 uM after 48 hrs by SRB assay relative to control; settings: A498, 48 h, read-out: GI
OVCAR-3 = test: Cytotoxicity against human OVCAR3 cells assessed as growth inhibition at 10 uM after 48 hrs by SRB assay relative to control; settings: OVCAR-3, 48 h, read-out: GI
HOP-92 = test: Cytotoxicity against human HOP92 cells assessed as growth inhibition at 10 uM after 48 hrs by SRB assay relative to control; settings: HOP-92, 48 h, read-out: GI
HCT-15 = test: Cytotoxicity against human HCT15 cells assessed as growth inhibition at 10 uM after 48 hrs by SRB assay relative to control; settings: HCT-15, 48 h, read-out: GI
SR = test: Cytotoxicity against human SR cells assessed as growth inhibition at 10 uM after 48 hrs by SRB assay relative to control; settings: read-out: GI
SW-620 = test: Cytotoxicity against human SW620 cells assessed as growth inhibition at 10 uM after 48 hrs by SRB assay relative to control; settings: SW-620, 48 h, read-out: GI
SK-MEL-2 = test: Cytotoxicity against human SK-MEL-2 cells assessed as growth inhibition at 10 uM after 48 hrs by SRB assay relative to control; settings: SK-MEL-2, 48 h, read-out: GI
K562 = test: Cytotoxicity against human K562 cells assessed as growth inhibition at 10 uM after 48 hrs by SRB assay relative to control; settings: K562, 48 h, read-out: GI
HCC 2998 = test: Cytotoxicity against human HCC2998 cells assessed as growth inhibition at 10 uM after 48 hrs by SRB assay relative to control; settings: HCC 2998, 48 h, read-out: GI
SN12C = test: Cytotoxicity against human SN12C cells assessed as growth inhibition at 10 uM after 48 hrs by SRB assay relative to control; settings: read-out: GI
BT-549 = test: Cytotoxicity against human BT549 cells assessed as growth inhibition at 10 uM after 48 hrs by SRB assay relative to control; settings: BT-549, 48 h, read-out: GI

SMILES | inhibition of growth at 10 µM (NCI-H226) [%] | inhibition of growth at 10 µM (T47D) [%] | inhibition of growth at 10 µM (OVCAR-4) [%] | inhibition of growth at 10 µM (SF-268) [%] | inhibition of growth at 10 µM (CCRF-CEM) [%] | inhibition of growth at 10 µM (ACHN) [%] | inhibition of growth at 10 µM (HOP-62) [%] | inhibition of growth at 10 µM (UACC-257) [%] | inhibition of growth at 10 µM (KM12) [%] | inhibition of growth at 10 µM (Malme-3M) [%] | inhibition of growth at 10 µM (SK-MEL-28) [%] | inhibition of growth at 10 µM (M14) [%] | inhibition of growth at 10 µM [1] [%] | inhibition of growth at 10 µM (MDA-MB-231) [%] | inhibition of growth at 10 µM (MOLT-4) [%] | inhibition of growth at 10 µM (OVCAR-8) [%] | inhibition of growth at 10 µM (PC-3) [%] | inhibition of growth at 10 µM (IGROV-1) [%] | inhibition of growth at 10 µM (MDA-MB-468) [%] | inhibition of growth at 10 µM (UO-31) [%] | other results
NCCNc1ccc2cc(-c3nc4ccccc4[nH]3)c(=O)oc2c1 | < 20 | < 20 | < 20 | < 20 | < 20 | < 20 | < 20 | < 20 | < 20 | < 20 | < 20 | < 20 | < 20 | 34 | < 20 | < 20 | 20.3 | < 20 | < 20 | < 20 | inhibition of growth at 10 µM (UACC-62): < 20%; inhibition of growth at 10 µM (Hs-578T): < 20%; inhibition of growth at 10 µM (OVCAR-5): < 20%; inhibition of growth at 10 µM (SNB-75): < 20%; inhibition of growth at 10 µM (A498): < 20%; inhibition of growth at 10 µM (OVCAR-3): < 20%; inhibition of growth at 10 µM (HOP-92): < 20%; inhibition of growth at 10 µM (HCT-15): 20.6%; inhibition of growth at 10 µM (SR): < 20%; inhibition of growth at 10 µM (SW-620): < 20%; inhibition of growth at 10 µM (SK-MEL-2): < 20%; inhibition of growth at 10 µM (K562): < 20%; inhibition of growth at 10 µM (HCC 2998): < 20%; inhibition of growth at 10 µM (SN12C): < 20%; inhibition of growth at 10 µM (BT-549): < 20%
O=c1oc2cc(Br)ccc2cc1-c1nc2ccccc2[nH]1 | < 20 | 28.4 | < 20 | < 20 | < 20 | < 20 | < 20 | < 20 | < 20 | < 20 | < 20 | < 20 | < 20 | 26 | < 20 | < 20 | < 20 | < 20 | < 20 | 22.7 | inhibition of growth at 10 µM (UACC-62): < 20%; inhibition of growth at 10 µM (Hs-578T): 25.1%; inhibition of growth at 10 µM (OVCAR-5): < 20%; inhibition of growth at 10 µM (SNB-75): 22.9%; inhibition of growth at 10 µM (A498): < 20%; inhibition of growth at 10 µM (OVCAR-3): < 20%; inhibition of growth at 10 µM (HOP-92): 20.1%; inhibition of growth at 10 µM (HCT-15): < 20%; inhibition of growth at 10 µM (SR): 21.5%; inhibition of growth at 10 µM (SW-620): < 20%; inhibition of growth at 10 µM (SK-MEL-2): < 20%; inhibition of growth at 10 µM (K562): < 20%; inhibition of growth at 10 µM (HCC 2998): < 20%; inhibition of growth at 10 µM (SN12C): < 20%; inhibition of growth at 10 µM (BT-549): < 20%
CN1CCN(c2ccc3cc(-c4nc5ccccc5[nH]4)c(=O)oc3c2)CC1 | < 20 | 23.1 | 29.8 | < 20 | 26.5 | < 20 | < 20 | 25.3 | < 20 | < 20 | < 20 | < 20 | < 20 | < 20 | < 20 | < 20 | < 20 | 20.1 | 31.7 | 34.6 | inhibition of growth at 10 µM (Hs-578T): < 20%; inhibition of growth at 10 µM (OVCAR-5): < 20%; inhibition of growth at 10 µM (SNB-75): < 20%; inhibition of growth at 10 µM (A498): < 20%; inhibition of growth at 10 µM (OVCAR-3): < 20%; inhibition of growth at 10 µM (HOP-92): 41.1%; inhibition of growth at 10 µM (HCT-15): < 20%; inhibition of growth at 10 µM (SR): < 20%; inhibition of growth at 10 µM (SW-620): < 20%; inhibition of growth at 10 µM (SK-MEL-2): < 20%; inhibition of growth at 10 µM (K562): 56.4%; inhibition of growth at 10 µM (HCC 2998): < 20%; inhibition of growth at 10 µM (SN12C): < 20%; inhibition of growth at 10 µM (BT-549): < 20%
